Test results from PMC6204753, “Non-native autoinducer analogs capable of modulating the SdiA quorum sensing receptor in Salmonella enterica serovar Typhimurium” (Beilstein Journal of Organic Chemistry, 2018).

Molecular target: SdiA (Salmonella enterica subsp. enterica serovar Typhimurium, UniProt O66040)
Assay: S. Typhimurium-pJNS25 SdiA reporter, competitive antagonism against 10 nM L-OOHL
Assay type: cell-based
Details: for Antagonism 1 μM Inhibition (%): 1 μM compound; for Antagonism 1 μM Inhibition (%) / Antagonism 100 μM Inhibition (%): average ± STD, change in activity from 10 nM 2 (OOHL); for Antagonism 100 μM Inhibition (%): 100 μM compound
Description: Biological assays for SdiA activity. Cell-based reporter strains that rely on detecting the transcriptional activity of LuxR-type receptors are commonly used to assess the activity of exogenous ligands. We used the S. Typhimurium-pJNS25 reporter strain constructed by Smith and Ahmer and also used by Janssens et al. to examine SdiA activity. This strain naturally produces SdiA and contains a reporter plasmid with the promoter region for srgE fused to the luxABCDE operon of V. fischeri (see Experimental section for details of all strains and plasmids). SdiA activity is thus reported by the production of luciferase and resulting bioluminescence. We also prepared an SdiA reporter in E. coli (JLD271-pJN105SE-pSC11SE) to examine S. Typhimurium SdiA activity in an alternate background and with a different reporter gene output. […] This reporter construct uses an arabinose inducible promoter to produce S. Typhimurium SdiA and the promoter region for srgE fused to lacZ to report SdiA activity. SdiA activity is then measured using standard β-galactosidase assays. In both reporter strains, signal was normalized to the difference between the positive control (10 μM OOHL) and the negative control (1% DMSO; no compound).
Salmonella SdiA reporter assay. S. Typhimurium-pJNS25 was grown 16–18 h overnight in LB, diluted 1:100 in fresh LB medium, and then incubated for 6 h at 37 °C with shaking at 200 rpm in the presence of compounds (1% DMSO). […] All compounds were screened at 100 μM and 1 μM in triplicate in agonism and antagonism assays. […] Dose–response analyses were performed by preparing dilutions of compounds in DMSO and testing each concentration in the agonism or antagonism assays. Competition dose–response assays (data in Figure 5) were performed in the same manner as the antagonism assays, except instead of OOHL being added to the subculture, the antagonist being tested was added. Non-linear regression curve fits were generated using GraphPad Prism software (version 6) using variable slope (four parameter) dose–response analysis.

SdiA, sequence (O66040 entry or part of it): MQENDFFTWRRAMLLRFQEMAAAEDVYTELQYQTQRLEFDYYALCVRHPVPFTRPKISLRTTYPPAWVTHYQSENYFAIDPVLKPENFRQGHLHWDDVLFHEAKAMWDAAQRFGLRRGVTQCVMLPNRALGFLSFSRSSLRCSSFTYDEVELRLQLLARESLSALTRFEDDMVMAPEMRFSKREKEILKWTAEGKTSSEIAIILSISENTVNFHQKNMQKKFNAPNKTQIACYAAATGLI

Row | SMILES | Antagonism 1 μM Inhibition (%) | Antagonism 100 μM Inhibition (%) | SdiA antagonism (in words) (S. Typhimurium reporter)
1 | O=C(Cc1cccc(F)c1)N[C@H]1CCOC1=O [C3] | -1 ± 15% | -18 ± 12% | –
2 | COc1ccc(CCC(=O)N[C@H]2CCOC2=O)cc1 [E28] | 11 ± 18% | 6 ± 15% | –
3 | CCCCCC(=O)N[C@H]1CCSC1=O [F7] | 7 ± 9% | -12 ± 4% | –
4 | O=C(N[C@H]1CCOC1=O)c1ccc(-c2csnn2)cc1 [D10] | 23 ± 6% | 14 ± 12% | –
5 | COc1ccccc1C1CCN(c2ccc(/C=C/C(=O)N[C@H]3CCOC3=O)cc2[N+](=O)[O-])CC1 [D18] | 18 ± 8% | 32 ± 5% | –
6 | O=C(N[C@H]1CCOC1=O)c1ccc(F)cc1 [Q3] | 34 ± 2% | -26 ± 17% | –
7 | COc1ccc(C(=O)N[C@H]2CCOC2=O)cc1 [Q6] | 26 ± 18% | -6 ± 14% | –
8 | O=C(Cc1ccc2ccccc2c1)N[C@H]1CCOC1=O [E12] | -13 ± 9% | 0 ± 15% | –
9 | O=C(C=Cc1ccccc1)NC1CCOC1=O (stereo not drawn) [B10] | 16 ± 5% | -56 ± 11% | –
10 | O=C(Cc1c[nH]c2ccccc12)N[C@H]1CCOC1=O [B13] | 8 ± 10% | 13 ± 13% | –
11 | CCCCCCCCCC(=O)NC1CCCC1 [compound 17, reference compound] | 26 ± 12% | 28 ± 5% | –
12 | O=C(Cc1c(F)c(F)c(F)c(F)c1F)N[C@H]1CCOC1=O [C16] | 5 ± 3% | -32 ± 18% | –
13 | CCOc1ccc(C(=O)N[C@H]2CCOC2=O)cc1 [R1] | 22 ± 6% | 13 ± 8% | –
14 | O=C(Cc1ccccc1)N[C@H]1CCSC1=O [F9] | -1 ± 4% | -13 ± 1% | –
15 | O=C(Cc1ccc(Cl)cc1)N[C@H]1CCOC1=O [C5] | 13 ± 6% | 18 ± 7% | –
16 | O=C(CCc1ccc2c(c1)OCO2)N[C@H]1CCOC1=O [E39] | 10 ± 15% | 12 ± 3% | –
17 | O=C(N[C@H]1CCOC1=O)c1ccc2c(c1)OCO2 [Q11] | 7 ± 7% | -2 ± 12% | –
18 | CCCCCCCCc1ccc(C(=O)N[C@H]2CCOC2=O)cc1 [D13] | 17 ± 7% | 23 ± 7% | –
19 | O=C(Cc1cccc([N+](=O)[O-])c1)Nc1ccccc1 [F25] | 20 ± 4% | -2 ± 14% | –
20 | O=C(Cc1cccc([N+](=O)[O-])c1)NCc1cccc([N+](=O)[O-])c1 [F55] | 11 ± 4% | 26 ± 7% | –
21 | O=C(CC(=O)N[C@H]1CCOC1=O)Cc1cccc(Cl)c1 [H23] | 12 ± 8% | 1 ± 9% | –
22 | O=C(CCCc1ccccc1)NC1CCOC1=O (stereo not drawn) [B3] | 34 ± 5% | 16 ± 3% | –
23 | CC(C)Oc1ccc(C(=O)N[C@H]2CCOC2=O)cc1 [R3] | 23 ± 8% | 11 ± 10% | –
24 | O=C(Cc1ccc(Br)cc1)N[C@H]1CCOC1=O [compound 7, reference compound] | 26 ± 9% | 21 ± 10% | –
25 | CCCCOc1ccc(C(=O)N[C@H]2CCOC2=O)cc1 [R4] | 23 ± 9% | 11 ± 12% | –

Row | SMILES | Antagonism 1 μM Inhibition (%) | Antagonism 100 μM Inhibition (%) | SdiA antagonism (in words) (S. Typhimurium reporter)
26 | O=C(CCc1ccc(C(F)(F)F)cc1)N[C@H]1CCOC1=O [compound 9, reference compound] | 32 ± 10% | 11 ± 16% | –
27 | O=C(Cc1ccc([N+](=O)[O-])cc1)N[C@H]1CCOC1=O [C13] | 24 ± 4% | 14 ± 9% | –
28 | CCCCCC(O)CC(=O)N[C@H]1CCOC1=O (stereo partly drawn) [H2] | 8 ± 5% | 12 ± 16% | –
29 | O=C(CCc1ccccc1)N[C@H]1CCOC1=O [B9] | 13 ± 10% | 18 ± 14% | –
30 | O=C(CCc1ccc([N+](=O)[O-])cc1)N[C@H]1CCOC1=O [E37] | 34 ± 5% | 23 ± 5% | –
31 | O=C(N[C@H]1CCOC1=O)c1ccc(Br)cc1 [B6] | 25 ± 11% | -14 ± 17% | –
32 | CC(C)(C)OC(=O)Nc1ccc(CC(=O)N[C@H]2CCOC2=O)cc1 [C22] | -9 ± 2% | 6 ± 6% | –
33 | O=C(Cc1ccccc1[N+](=O)[O-])N[C@H]1CCOC1=O [C15] | 5 ± 2% | -17 ± 18% | –
34 | O=C(Cc1ccccc1Cl)N[C@H]1CCOC1=O [C7] | 22 ± 6% | -32 ± 5% | –
35 | O=C(Cc1ccccc1)N[C@H]1CCOC1=O [C1] | 9 ± 12% | -6 ± 5% | –
36 | O=C(CC(O)Cc1cccc(I)c1)N[C@H]1CCOC1=O (stereo partly drawn) [H15] | 6 ± 14% | 19 ± 11% | –
37 | O=C(Cc1ccc(C(F)(F)F)cc1)N[C@H]1CCOC1=O [C20] | 15 ± 10% | 8 ± 6% | –
38 | O=C(Cc1ccc(O)cc1)N[C@H]1CCOC1=O [C23] | 6 ± 2% | 16 ± 3% | –
39 | CCCCCCCCCC(=O)N[C@H]1CCOC1=O [A4] | 12 ± 19% | 18 ± 7% | –
40 | O=C(N[C@H]1CCOC1=O)c1ccc(I)cc1 [Q5] | 28 ± 10% | -14 ± 10% | –
41 | O=C(N[C@H]1CCOC1=O)c1ccc([N+](=O)[O-])cc1 [Q7] | 28 ± 7% | 20 ± 9% | –
42 | [N-]=[N+]=Nc1ccc(CC(=O)N[C@H]2CCOC2=O)cc1 [C17] | 13 ± 11% | 9 ± 6% | –
43 | O=C(CCc1cccc(Br)c1)N[C@H]1CCOC1=O [E31] | 13 ± 10% | 6 ± 6% | –
44 | O=C(Cc1ccc(SC(F)(F)F)cc1)N[C@H]1CCOC1=O [E8] | 34 ± 11% | 31 ± 7% | –
45 | O=C(CCc1ccc(I)cc1)N[C@H]1CCOC1=O [E32] | 19 ± 14% | 24 ± 13% | –
46 | CCCCCCC(=O)N[C@H]1CCOC1=O [compound 4, reference compound] | 26 ± 4% | 16 ± 5% | –
47 | O=C(CCCc1c[nH]c2ccccc12)N[C@@H]1CCOC1=O [B5] | 30 ± 15% | -8 ± 5% | –
48 | CCCCCCCCCCCCCC(=O)N[C@H]1CCOC1=O [H26] | 5 ± 14% | 0 ± 8% | failed to inhibit SdiA
49 | O=C(CCCc1ccccc1)N[C@H]1CCOC1=O [compound 6, reference compound] | 31 ± 6% | 21 ± 10% | –
